Laboratory results taken from patent US9445606B2, “Use of 4-hydroxydihydrochalcones and their salts for enhancing an impression of sweetness” (SYMRISE AG, priority 2006, dated 2016).

Assays:
[1] = Enhancing the impression of sweetness of a solution containing a sweet-tasting substance (expert panel rating), sucrose; type: in vivo; conditions: 30 ppm substance, 5%
Protocol: (§1) In order to quantify the enhancement of an impression of sweetness by adding 4-hydroxydihydrochalcones to be used according to the invention, the sweetness of a solution containing a sweet-tasting substance and of samples containing the same amount of sweet-tasting substance and in addition a certain concentration of the 4-hydroxydihydrochalcones of the formula (I) to be used according to the invention was determined by a group of experts (classification 0 [extremely weaklysweet] to 10 [extremely sweet]). Evaluation was performed by calculating the enhancement (in %) of the impression of sweetness from the average values of the ratings for the solution containing the sweet-tasting substance (a) and for the solution containing the sweet-tasting substance and 4-dydroxydihydrochalcones (b).

[2] = Enhancing the impression of sweetness of a solution containing a sweet-tasting substance (expert panel rating), glycerine; type: in vivo; conditions: 30 ppm substance, 5%
Protocol: as §1

[3] = Impression of sweetness of a sugar-reduced test solution (5% sucrose + compound against 6% sucrose); type: in vivo
From the text: In order to quantify the retention of an impression of sweetness when replacing a proportion of sucrose with a small amount of 4-hydroxydihydrochalcones of the formula (I) being used in accordance with the invention, the sweetness (a) of a solution containing 6 wt. % of sucrose as compared with a solution containing 5 wt. % of sucrose and (b) or (c) of a solution containing 6 wt. % of sucrose as compared with a solution containing 5% of sucrose and a certain concentration of a 4-hydroxydihydrochalcone being used according to the invention was determined by a group of experts (classification 0 [not sweet] to 10 [extremely sweet]). Evaluation was performed by calculating the enhancement (in %) of the impression of sweetness from the average values of the estimates for the solutions of 6% sucrose (second column) and for the solutions containing 5% sucrose and optionally the 4-hydroxydihydrochalcone of the formula (I) being used according to the invention (third column).

[4] = in particular in clear aqueous applications; cited from earlier work

O=C(CCc1ccc(O)cc1)c1c(O)cc(O)cc1O [compound 4, 3-(4-hydroxyphenyl)-1-(2,4,6-trihydroxyphenyl)propan-1-one]
total number of tasters / number of tasters who felt that test solution (b) was sweeter than test solution (a) [1]: 16/14
% enhancement of the impression of sweetness ([1]; (b) with against (a) without): +31%
Impression of sweetness (1-10) b) with ([1]; mean ± standard deviation): 7.4 ± 1.4
total number of tasters / number of tasters who felt that test solution (b) was sweeter than test solution (a) [2]: 16/11
% enhancement of the impression of sweetness ([2]; (b) with against (a) without): +45%
Impression of sweetness (1-10) b) with ([2]; mean ± standard deviation): 4.4 ± 2.1
total number of tasters / number of tasters who felt the 5 wt. % sucrose test solution with substance sweeter than 6 wt. % sucrose ([3]; 5% sucrose + 30 ppm substance): 16/7
% enhancement of the impression of sweetness ([3]; 5% sucrose + 30 ppm substance against 6% sucrose): −4.9%
Impression of sweetness (1-10) ([3]; 5% sucrose + 30 ppm substance, mean ± standard deviation): 6.1 ± 1.4

COc1ccc(C2CC(=O)c3c(O)cc(O)cc3O2)cc1O (stereo not shown) [hesperetin]
solubility [4]: low solubility
